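Following 48 hours of exposure in 96-well plates, responses at five concentrations were used to interpolate endpoints linearly. The concentration for 50% growth inhibition is given as GI50.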 Active and inactive are the calls of the source. Rule as the data show it: active = GI50 up to about 1.1 µM and inactive = higher.
Assays:
Assay in all cases: growth of human tumour cells (NCI), 48 h
DMS-114 = test system: DMS-114
SF-268 = test system: SF-268
SK-MEL-28 = test system: SK-MEL-28
Malme-3M = test system: Malme-3M
HOP-62 = test system: HOP-62
SF-295 = test system: SF-295
NCI-H460 = test system: NCI-H460
IGROV-1 = test system: IGROV-1
A498 = test system: A498
OVCAR-3 = test system: OVCAR-3
OVCAR-5 = test system: OVCAR-5
UACC-257 = test system: UACC-257
SK-MEL-5 = test system: SK-MEL-5
SK-MEL-2 = test system: SK-MEL-2
NCI-H522 = test system: NCI-H522
EKVX = test system: EKVX
COLO 205 = test system: COLO 205
DLD-1 = test system: DLD-1
OVCAR-8 = test system: OVCAR-8
786-0 = test system: 786-0
TK-10 = test system: TK-10
CCRF-CEM = test system: CCRF-CEM
DMS-273 = test system: DMS-273
SF-539 = test system: SF-539
RPMI-8226 = test system: RPMI-8226
ACHN = test system: ACHN
LOX IMVI = test system: LOX IMVI
SNB-19 = test system: SNB-19
UACC-62 = test system: UACC-62
NCI-H23 = test system: NCI-H23
HT-29 = test system: HT-29
HCC 2998 = test system: HCC 2998
U-251 = test system: U-251
K562 = test system: K562
XF498 = test system: XF498
SNB-75 = test system: SNB-75
SNB-78 = test system: SNB-78
HCT-116 = test system: HCT-116
LXFL 529 = test system: LXFL 529
M19-MEL = test system: M19-MEL
KM12 = test system: KM12
M14 = test system: M14
SW-620 = test system: SW-620
OVCAR-4 = test system: OVCAR-4
MOLT-4 = test system: MOLT-4
KM-20L2 = test system: KM-20L2
A549 = test system: A549
UO-31 = test system: UO-31
SN12C = test system: SN12C
SK-OV-3 = test system: SK-OV-3
HCT-15 = test system: HCT-15
HOP-92 = test system: HOP-92
SR = test system: SR
HOP-18 = test system: HOP-18
CAKI-1 = test system: CAKI-1
NCI-H226 = test system: NCI-H226
HL-60 = test system: HL-60
RXF 393 = test system: RXF 393

Measured: GI50

Cc1cc2c(c(C(N)=O)c1C)-c1cccc(F)c1C2=O
inactive: DMS-114 > 100 µM | SF-268 > 100 µM | SK-MEL-28 > 100 µM | Malme-3M > 100 µM | HOP-62 > 100 µM | SF-295 > 100 µM | NCI-H460 > 100 µM | IGROV-1 > 100 µM | A498 45.5 µM | OVCAR-3 > 100 µM | OVCAR-5 > 100 µM | UACC-257 > 100 µM | SK-MEL-5 > 100 µM | SK-MEL-2 > 100 µM | NCI-H522 41.2 µM | EKVX > 100 µM | COLO 205 > 100 µM | DLD-1 > 100 µM | OVCAR-8 > 100 µM | 786-0 > 100 µM | TK-10 > 100 µM | CCRF-CEM > 100 µM | DMS-273 > 100 µM | SF-539 > 100 µM | RPMI-8226 > 100 µM | ACHN > 100 µM | LOX IMVI > 100 µM | SNB-19 > 100 µM | UACC-62 79.6 µM | NCI-H23 > 100 µM | HT-29 > 100 µM | HCC 2998 > 100 µM | U-251 > 100 µM | K562 > 100 µM | XF498 57.3 µM | SNB-75 30.3 µM | SNB-78 > 100 µM | HCT-116 80.2 µM | LXFL 529 > 100 µM | M19-MEL > 100 µM | KM12 > 100 µM | M14 > 100 µM | SW-620 > 100 µM | OVCAR-4 > 100 µM | MOLT-4 > 100 µM | KM-20L2 > 100 µM | A549 > 100 µM | UO-31 40.9 µM | SN12C > 100 µM | SK-OV-3 > 100 µM | HOP-92 > 100 µM
> 100 µM: HCT-15

Cc1cccc(O)c(=O)c1
inactive: DMS-114 5.92 µM | SF-268 21.2 µM | SK-MEL-28 49.4 µM | Malme-3M 31 µM | HOP-62 39.2 µM | SF-295 39.7 µM | NCI-H460 31.7 µM | IGROV-1 37.4 µM | A498 54 µM | SR 15.2 µM | HOP-18 > 100 µM | OVCAR-3 11.6 µM | OVCAR-5 47.6 µM | UACC-257 28.3 µM | SK-MEL-5 28.1 µM | CAKI-1 63.1 µM | NCI-H522 6.79 µM | EKVX 23.6 µM | COLO 205 6.24 µM | DLD-1 24.1 µM | OVCAR-8 19.1 µM | 786-0 9.12 µM | TK-10 29.2 µM | CCRF-CEM 3.48 µM | DMS-273 7.41 µM | SF-539 29.6 µM | RPMI-8226 7.6 µM | ACHN 31.7 µM | LOX IMVI 7.03 µM | SNB-19 92.9 µM | UACC-62 11.4 µM | HT-29 19 µM | HCC 2998 44.4 µM | U-251 21.4 µM | SNB-75 83.6 µM | NCI-H226 3.3 µM | SNB-78 > 100 µM | HCT-116 11.9 µM | LXFL 529 29.9 µM | M19-MEL 43.5 µM | KM12 20.3 µM | M14 31.8 µM | HL-60 3.44 µM | SW-620 16.4 µM | OVCAR-4 45.8 µM | MOLT-4 6.38 µM | KM-20L2 22.8 µM | A549 24.9 µM | UO-31 73.3 µM | SN12C 37.8 µM | RXF 393 > 100 µM | SK-OV-3 > 100 µM | HOP-92 89.3 µM
8.3 µM: HCT-15

Source: ChEMBL document CHEMBL1201862, “PubChem BioAssay data set” (2004)
